In patent publication US10125139B2, “Pesticidally active polycyclic derivatives with sulfur substituted five-membered ring heterocycles” (Syngenta Participations AG, priority 2015, dated 2018):

Columns and labels:
[1] = tested on: Spodoptera littoralis (Egyptian Cotton Leaf Worm); assay: Example B9: Spodoptera littoralis, cotton leaf discs, L1 larvae; type: in vivo; details: for percent control (mortality, anti-feedant effect or growth inhibition) at 200 ppm: Spodoptera littoralis, foliar, 72 h, application rate of 200 ppm, 3 days after infestation, L1 larvae
Description: Example B9: Spodoptera littoralis (Egyptian Cotton Leaf Worm)
Cotton leaf discs were placed onto agar in 24-well microtiter plates and sprayed with aqueous test solutions prepared from 10,000 ppm DMSO stock solutions. After drying the leaf discs were infested with five L1 larvae. The samples were assessed for mortality, anti-feeding effect, and growth inhibition in comparison to untreated samples 3 days after infestation. Control of Spodoptera littoralis by a test sample is given when at least one of the categories mortality, anti-feedant effect, and growth inhibition is higher than the untreated sample.
(§1) Insecticidal action against Diabrotica balteata (Corn root worm), Plutella xylostella (Diamond black moth), and Spodoptera littoralis (Egyptian cotton leaf worm). The tests were carried out as described in biological examples B2, B8 and B9, respectively, with the larval feeding/contact activity (mortality only) being reported as Breakpoint (BP80) values in parts per million (i.e. the lowest concentration which gives 80% larval mortality).

[2] = tested on: Spodoptera littoralis (Egyptian Cotton Leaf Worm); assay: Example B10: Spodoptera littoralis systemic activity, lettuce grown on treated agar; type: in vivo; details: 144 h, test rate of 12.5 ppm, 6 days after infestation, read-out: effect in at least one of the three categories (mortality, anti-feeding, or growth inhibition)
From the text: Example B10: Spodoptera littoralis (Egyptian Cotton Leaf Worm) Systemic Activity
Test compounds were applied by pipette from 10,000 ppm DMSO stock solutions into 24-well plates and mixed with agar. Lettuce seeds were placed onto the agar and the multi well plate was closed by another plate which contained also agar. After 7 days the compound was absorbed by the roots and the lettuce grew into the lid plate. The lettuce leaves were then cut off into the lid plate. Spodoptera eggs were pipetted through a plastic stencil onto a humid gel blotting paper and the lid plate was closed with it. The samples were assessed for mortality, anti-feedant effect and growth inhibition in comparison to untreated samples 6 days after infestation. The following compounds gave an effect of at least 80% in at least one of the three categories (mortality, anti-feeding, or growth inhibition) at a test rate of 12.5 ppm: […]

[3] = tested on: Plutella xylostella (Diamond Back Moth); assay: Example B8: Plutella xylostella, artificial diet, L2 larvae; type: in vivo; details: for percent effect (mortality or growth inhibition) at 200 ppm: Plutella xylostella, 120 h, application rate of 200 ppm, 5 days after infestation, L2 larvae, read-out: effect in at least one of the two categories (mortality or growth inhibition)
Description: Example B8: Plutella xylostella (Diamond Back Moth)
(§2) 24-well microtiter plates with artificial diet were treated with aqueous test solutions prepared from 10,000 ppm DMSO stock solutions by pipetting. After drying, the plates were infested with L2 larvae (10 to 15 per well). The samples were assessed for mortality and growth inhibition in comparison to untreated samples 5 days after infestation. The following compounds gave an effect of at least 80% in at least one of the two categories (mortality or growth inhibition) at an application rate of 200 ppm:
as §1

[4] = tested on: Diabrotica balteata (Corn Root Worm); assay: Example B2: Diabrotica balteata, sprayed maize sprouts, L2 larvae; type: in vivo; details: for percent effect (mortality or growth inhibition) at 200 ppm: Diabrotica balteata, 96 h, application rate of 200 ppm, 4 days after infestation, L2 larvae, read-out: effect in at least one of the two categories (mortality or growth inhibition)
Description: Example B2: Diabrotica balteata (Corn Root Worm)
as §2, with “Maize sprouts placed onto an agar layer in 24-well” for “24-well”, “plates” for “plates with artificial diet”, “spraying.” for “pipetting.”, “(6” for “(10”, “10” for “15”, “4” for “5”
as §1

[5] = tested on: Myzus persicae (Green Peach Aphid); assay: Example B5: Myzus persicae feeding/contact activity, sunflower leaf discs; type: in vivo; details: foliar, 144 h, application rate of 200 ppm, 6 days after infestation
Description: Example B5: Myzus persicae (Green Peach Aphid): Feeding/Contact Activity
Sunflower leaf discs were placed onto agar in a 24-well microtiter plate and sprayed with aqueous test solutions prepared from 10,000 ppm DMSO stock solutions. After drying, the leaf discs were infested with an aphid population of mixed ages. The samples were assessed for mortality 6 days after infestation.

[6] = tested on: Euschistus heros (Neotropical Brown Stink Bug); assay: Example B3: Euschistus heros, sprayed soybean leaves, N2 nymphs; type: in vivo; details: 120 h, application rate of 200 ppm, 5 days after infestation, read-out: effect in at least one of the two categories (mortality or growth inhibition)
Description: Example B3: Euschistus heros (Neotropical Brown Stink Bug)
Soybean leaves on agar in 24-well microtiter plates were sprayed with aqueous test solutions prepared from 10,000 ppm DMSO stock solutions. After drying the leaves were infested with N2 nymphs. The samples were assessed for mortality and growth inhibition in comparison to untreated samples 5 days after infestation. The following compounds gave an effect of at least 80% in at least one of the two categories (mortality or growth inhibition) at an application rate of 200 ppm: […]

[7] = tested on: Frankliniella occidentalis (Western Flower thrips); assay: Example B4: Frankliniella occidentalis feeding/contact activity, sunflower leaf discs; type: in vivo; details: foliar, 168 h, application rate of 200 ppm, 7 days after infestation, population of mixed ages
Description: Example B4: Frankliniella occidentalis (Western Flower thrips): Feeding/Contact Activity
(§3) Sunflower leaf discs were placed on agar in 24-well microtiter plates and sprayed with aqueous test solutions prepared from 10,000 DMSO stock solutions. After drying the leaf discs were infested with a Frankliniella population of mixed ages. The samples were assessed for mortality 7 days after infestation.

[8] = tested on: Bemisia tabaci (Cotton White Fly); assay: Example B1: Bemisia tabaci feeding/contact activity, cotton leaf discs; type: in vivo; details: foliar, 144 h, application rate of 200 ppm, 6 days after incubation, adult white flies
Description: Example B1: Bemisia tabaci (Cotton White Fly): Feeding/Contact Activity
Cotton leaf discs were placed on agar in 24-well microtiter plates and sprayed with aqueous test solutions prepared from 10,000 ppm DMSO stock solutions. After drying the leaf discs were infested with adult white flies. The samples were checked for mortality 6 days after incubation.

[9] = tested on: Thrips tabaci (Onion thrips); assay: Example B12: Thrips tabaci feeding/contact activity, sunflower leaf discs; type: in vivo; details: foliar, 144 h, application rate of 200 ppm, 6 days after infestation
Description: Example B12: Thrips tabaci (Onion thrips) Feeding/Contact Activity
as §3, with “10,000 ppm” for “10,000”, “thrips” for “Frankliniella”, “6” for “7”

[10] = tested on: Myzus persicae (Green Peach Aphid); assay: Example B6: Myzus persicae systemic activity, pea seedling roots in test solution; type: in vivo; details: 144 h, test rate of 24 ppm, 6 days after placing seedlings into test solutions
Description: Example B6: Myzus persicae (Green Peach Aphid). Systemic Activity
Roots of pea seedlings infested with an aphid population of mixed ages were placed directly into aqueous test solutions prepared from 10,000 DMSO stock solutions. The samples were assessed for mortality 6 days after placing seedlings into test solutions.

melting point [°C] | Compound | percent control (mortality, anti-feedant effect or growth inhibition) at 200 ppm [1] [%] | percent effect (mortality, anti-feeding or growth inhibition) at 12.5 ppm [2] [%] | percent effect (mortality or growth inhibition) at 200 ppm [3] [%] | percent effect (mortality or growth inhibition) at 200 ppm [4] [%] | mortality at 200 ppm [5] [%] | percent effect (mortality or growth inhibition) at 200 ppm [6] [%] | mortality at 200 ppm [7] [%] | mortality at 200 ppm [8] [%] | mortality at 200 ppm [9] [%] | also measured
169 to 171 | CCS(=O)(=O)c1ncsc1-c1nc2cc(C(F)(F)F)ncc2n1C [Example I-2] |  |  |  |  |  |  |  |  |  | 
248 to 250 | CCS(=O)(=O)c1nc(Br)sc1-c1nc2cc(C(F)(F)F)ncc2n1C [Example I-4, 2-bromo-4-ethylsulfonyl-5-[3-methyl-6-(trifluoromethyl)imidazo[4,5-c]pyridin-2-yl]thiazole] |  |  |  |  |  |  |  |  |  | 
 | CCS(=O)(=O)c1cc(I)sc1-c1nc2cc(C(F)(F)F)nnc2n1C [Example I-6, 6-(3-ethylsulfonyl-5-iodo-2-thienyl)-7-methyl-3-(trifluoromethyl)imidazo[4,5-c]pyridazine] | ≥ 80 | ≥ 80 | ≥ 80 | ≥ 80 |  |  |  |  |  | 
61 to 63 | CCSc1cc(I)sc1-c1nc2cc(C(F)(F)F)ncc2n1C [Example I-12, 2-(3-ethylsulfanyl-5-iodo-2-thienyl)-3-methyl-6-(trifluoromethyl)imidazo[4,5-c]pyridine] |  |  |  |  |  |  |  |  |  | 
 | CCS(=O)(=O)c1cc(-c2ccc(C(F)(F)F)cc2)sc1-c1nc2cc(C(F)(F)F)ncc2n1C [Example P-1, 2-[3-ethylsulfonyl-5-[4-(trifluoromethyl)phenyl]-2-thienyl]-3-methyl-6-(trifluoromethyl)imidazo[4,5-c]pyridine] | ≥ 80 | ≥ 80 | ≥ 80 | ≥ 80 | ≥ 80 | ≥ 80 |  |  |  | BP80 (Breakpoint, lowest concentration which gives 80% larval mortality) Spodoptera littoralis ([1]; larval feeding/contact activity, mortality only, test as in B9): 0.8 ppm; BP80 (Breakpoint, lowest concentration which gives 80% larval mortality) Plutella xylostella ([3]; larval feeding/contact activity, mortality only, test as in B8): 0.8 ppm; BP80 (Breakpoint, lowest concentration which gives 80% larval mortality) Diabrotica balteata ([4]; larval feeding/contact activity, mortality only, test as in B2): 0.8 ppm
 | CCS(=O)(=O)c1nc(-c2ccc(Cl)cc2)sc1-c1nc2cc(C(F)(F)F)ncc2n1C [Example P-4, 2-(4-chlorophenyl)-4-ethylsulfonyl-5-[3-methyl-6-(trifluoromethyl)imidazo[4,5-c]pyridin-2-yl]thiazole] | ≥ 80 | ≥ 80 | ≥ 80 | ≥ 80 | ≥ 80 | ≥ 80 | ≥ 80 | ≥ 80 |  | 
 | CCS(=O)(=O)c1cc(-c2ccc(Cl)cc2)sc1-c1nc2cc(C(F)(F)F)ncc2n1C [Example P-5, 2-[5-(4-chlorophenyl)-3-ethylsulfonyl-2-thienyl]-3-methyl-6-(trifluoromethyl)imidazo[4,5-c]pyridine] | ≥ 80 | ≥ 80 | ≥ 80 | ≥ 80 | ≥ 80 | ≥ 80 | ≥ 80 | ≥ 80 | ≥ 80 | 
 | CCS(=O)(=O)c1nc(-c2ncccn2)sc1-c1nc2cc(C(F)(F)F)ncc2n1C [Example P-9, 4-ethylsulfonyl-5-[3-methyl-6-(trifluoromethyl)imidazo[4,5-c]pyridin-2-yl]-2-pyrimidin-2-yl-thiazole] |  |  |  |  |  |  |  |  |  | mortality at 24 ppm [10]: ≥ 80%
 | CCS(=O)(=O)c1nc(-n2ccc(C(F)(F)F)n2)sc1-c1nc2cc(C(F)(F)F)ncc2n1C [Example P-10, 4-ethylsulfonyl-5-[3-methyl-6-(trifluoromethyl)imidazo[4,5-c]pyridin-2-yl]-2-[3-(trifluoromethyl)pyrazol-1-yl]thiazole] | ≥ 80 | ≥ 80 |  | ≥ 80 | ≥ 80 | ≥ 80 | ≥ 80 | ≥ 80 | ≥ 80 | 
230 to 232 | CCSc1nc(-c2ncccn2)sc1-c1nc2cc(C(F)(F)F)ncc2n1C [Example P-11] |  |  |  |  |  |  |  |  |  | 
 | CCS(=O)(=O)c1cc(-c2ccc(Cl)cc2)sc1-c1nc2cc(SC(F)(F)F)ncc2n1C [Example P-15] | ≥ 80 | ≥ 80 | ≥ 80 | ≥ 80 | ≥ 80 | ≥ 80 | ≥ 80 | ≥ 80 | ≥ 80 | 
205 to 207 | CCSc1cc(-c2ccc(Cl)cc2)sc1-c1nc2cc(C(F)(F)F)nnc2n1C [Example P-17, 6-[5-(4-chlorophenyl)-3-ethylsulfanyl-2-thienyl]-7-methyl-3-(trifluoromethyl)imidazo[4,5-c]pyridazine] |  |  |  |  |  |  |  |  |  | 
 | CCS(=O)(=O)c1cc(-c2ccc(Cl)cc2)sc1-c1nc2cc(C(F)(F)F)nnc2n1C [Example P-18, 6-[5-(4-chlorophenyl)-3-ethylsulfonyl-2-thienyl]-7-methyl-3-(trifluoromethyl)imidazo[4,5-c]pyridazine] | ≥ 80 | ≥ 80 | ≥ 80 | ≥ 80 | ≥ 80 | ≥ 80 | ≥ 80 | ≥ 80 | ≥ 80 | 
